# Where a name gives a salt, the structure may show the parent alone. Read-outs that look alike come from different tables or passages of the source.
# Columns and labels:
# [1] = tested on: E. coli UBMS 88-1 (tetB); experiment: microbe, parasite or virus in culture; type: cell-based; details: Escherichia coli, 18 h
# Experimental: (§1) Method for In Vitro Antibacterial Evaluation (Table I)
# (§2) The minimum inhibitory concentration (MIC), the lowest concentration of the antibiotic which inhibits growth of the test organism, is determined by the agar dilution method using Muller-Hinton II agar (Baltimore Biological Laboratories). An inoculum density of 1-5×10^5 CFU/ml and an antibiotic concentration (32-≤0.015 μg/ml) is used. The plates are incubated for 18 hours at 35° C. in a forced air incubator. The test organisms comprise strains sensitive to tetracycline and genetically defined strains that are resistant to tetracycline, due to inability to bind bacterial ribosomes (tetM).
# [2] = tested on: S. aureus UBMS 88-5 (tetM); experiment: microbe, parasite or virus in culture; type: cell-based; details: Staphylococcus aureus, 18 h
# Experimental: as §1, §2
# [3] = tested on: S. aureus UBMS 88-7 (tetK); experiment: microbe, parasite or virus in culture; type: cell-based; details: Staphylococcus aureus, 18 h
# Experimental: as §1, §2
# [4] = tested on: S. aureus UBMS 90-1 (tetM); experiment: microbe, parasite or virus in culture; type: cell-based; details: Staphylococcus aureus, 18 h
# Experimental: as §1, §2
# [5] = tested on: S. aureus UBMS 90-2 (tetM); experiment: microbe, parasite or virus in culture; type: cell-based; details: Staphylococcus aureus, 18 h
# Experimental: as §1, §2
# [6] = tested on: E. coli ATCC 25922; experiment: In vitro antibacterial evaluation, MIC by agar dilution; type: cell-based; details: Escherichia coli
# Experimental: as §1, §2
# [7] = tested on: E. coli UBMS 88-2 (sensitive); experiment: as above; type: cell-based; details: Escherichia coli, 18 h
# Experimental: as §1, §2
# [8] = tested on: E. coli UBMS 89-2 (sensitive); experiment: as above; type: cell-based; details: Escherichia coli, Muller-Hinton II agar, 18 hours at 35° C.
# Experimental: as §1, §2
# [9] = tested on: Enteroc. spp. 12201; experiment: as above; type: cell-based
# Experimental: as §1, §2
# [10] = tested on: S. aureus ATCC 29213 (sensitive); experiment: as above; type: cell-based; details: Staphylococcus aureus, ATCC29213; agar dilution, Muller-Hinton II agar, 18 hours at 35° C.; S. aureus ATCC 29213 (sensitive); read-out: MIC
# Experimental: as §1, §2
# [11] = tested on: S. aureus IVES 1983 (MP) (meth. resistant); experiment: as above; type: cell-based; details: Staphylococcus aureus
# Experimental: as §1, §2
# [12] = tested on: S. aureus IVES 2943 (meth. resistant); experiment: as above; type: cell-based; details: Staphylococcus aureus
# Experimental: as §1, §2
# [13] = tested on: S. aureus SMITH (MP) (sensitive); experiment: as above; type: cell-based; details: Staphylococcus aureus
# Experimental: as §1, §2
# [14] = tested on: S. aureus UBMS 88-4 (sensitive); experiment: as above; type: cell-based; details: Staphylococcus aureus
# Experimental: as §1, §2
# [15] = tested on: S. aureus UBMS 90-3 (sensitive); experiment: as above; type: cell-based; details: Staphylococcus aureus
# Experimental: as §1, §2
# [16] = tested on: S. faecal. ATCC 29212; experiment: as above; type: cell-based
# Experimental: as §1, §2
# [17] = tested on: S. haemol. AVAH 88-3; experiment: as above; type: cell-based
# Experimental: as §1, §2
# [18] = tested on: E. coli UBMS 89-1 (tetM); experiment: microbe, parasite or virus in culture; type: cell-based; details: Escherichia coli, 18 h
# Experimental: as §1, §2
# [19] = tested on: S30 extract from E. coli strain MRE 600 (tetracycline sensitive); experiment: E. coli in vitro cell free protein translation system, Wild Type S30; type: biochemical; details: for % Inhibition Wild Type S30: 35S-methionine incorporation, 30 minutes at 37° C.
# Excerpt: (§3) E. coli in Vitro protein Translation System (Table II)
# (§4) An in vitro, cell free, protein translation system using extracts from E. coli strain MRE 600 (tetracycline sensitive) and a derivative of MRE 600 containing the tetM determinant has been developed based on literature methods J. M. Pratt, Coupled Transcription-translation in Prokaryotic Cell-free Systems, Transcription and Translation, a Practical Approach, (B. D. Hames and S. J. Higgins, eds) p. 179-209, IRL Press, Oxford-Washington, 1984!.
# (§5) Using the system described above, the tetracycline compounds of the present invention are tested for their ability to inhibit protein synthesis in vitro. Briefly, each 10 μl reaction contains S30 extract (a whole extract) made from either tetracycline sensitive cells or an isogenic tetracycline resistant (tetM) strain, low molecular weight components necessary for transcription and translation (i.e., ATP and GTP), a mix of 19 amino acids (no methionine), ^35 S labeled methionine, DNA template (either pBR322 or pUC119), and either DMSO (control) or the novel tetracycline compound to be tested ("novel TC") dissolved in DMSO.
# (§6) The reactions are incubated for 30 minutes at 37° C. Timing is initiated with the addition of the S30 extract, the last component to be added. After 30 minutes, 2.5 μl of the reaction is removed and mixed with 0.5 ml of 1N NaOH to destroy RNA and tRNA. Two to three ml of 25% trichloroacetic acid is added and the mixture incubated at room temperature for 15 minutes. The trichloroacetic acid precipitated material is collected on Whatman GF/C filters and washed with a solution of 10% trichloroacetic acid. The filters are dried and the retained radioactivity, representing incorporation of ^35 S-methionine into polypeptides, is counted using standard liquid scintillation methods.
# (§7) The percent inhibition (P.I.) of protein synthesis is determined to be: [formula]
# [20] = tested on: S30 extract from derivative of E. coli MRE 600 containing the tetM determinant; experiment: E. coli in vitro cell free protein translation system, TetM S30; type: biochemical; details: for % Inhibition TetM S30: 35S-methionine incorporation, 30 minutes at 37° C.
# Excerpt: as §3, §4, §5, §6, §7
# [21] = agar dilution, Muller-Hinton II agar, 18 hours at 35° C., S. aureus SMITH (MP) (sensitive), read-out: MIC
# [22] = agar dilution, Muller-Hinton II agar, 18 hours at 35° C., S. aureus UBMS 88-4 (sensitive), read-out: MIC
# [23] = agar dilution, Muller-Hinton II agar, 18 hours at 35° C., S. aureus UBMS 90-3 (sensitive), read-out: MIC
# [24] = agar dilution, Muller-Hinton II agar, 18 hours at 35° C., S. haemol. AVAH 88-3, read-out: MIC
# [25] = ATCC25922, agar dilution, Muller-Hinton II agar, 18 hours at 35° C., E. coli ATCC 25922, read-out: MIC
# [26] = agar dilution, Muller-Hinton II agar, 18 hours at 35° C., Enteroc. spp. 12201, read-out: MIC
# [27] = agar dilution, Muller-Hinton II agar, 18 hours at 35° C., S. faecal. ATCC 29212, read-out: MIC
Compound,MIC [1] [mg/L],MIC [2] [mg/L],MIC [3] [mg/L],MIC [4] [mg/L],MIC [5] [mg/L],"MIC ([6]; ATCC25922, 18 h) [mg/L]",MIC [7] [mg/L],MIC [8] [mg/L],MIC ([9]; 18 h) [mg/L],MIC [10] [mg/L],MIC ([11]; 18 h) [mg/L],MIC ([12]; 18 h) [mg/L],"MIC [13, 21] [mg/L]","MIC [14, 22] [mg/L]","MIC [15, 23] [mg/L]",MIC ([16]; 18 h) [mg/L],"MIC [17, 24] [mg/L]",MIC [18] [mg/L],"MIC [9, 26] [mg/L]","MIC [16, 27] [mg/L]",other results
"CN(C)[C@@H]1C(O)=C(C(N)=O)C(=O)[C@@]2(O)C(O)=C3C(=O)c4c(cc(Cl)c(N)c4O)CC3CC12 (some centres unmarked) [G, 9-Amino-8-chloro-4-(dimethylamino)-1,4,-4a,5,5a,6,11,12a-octahydro-3,10,12,12a-tetrahydroxy-1,11-dioxo-2-naphthacenecarboxamide]",> 32,1,2,1,0.25,1,4,4,2,< 0.015,8,8,< 0.015,< 0.015,< 0.015,0.25,0.12,,,,
"CN(C)c1ccc(O)c2c1C[C@H]1C[C@H]3[C@H](N(C)C)C(O)=C(C(N)=O)C(=O)[C@@]3(O)C(O)=C1C2=O [L, Minocycline hydrochloride, reference compound]",16,4,,4,4,,0.25,1,,≤ 0.015,4,4,0.03,0.03,0.03,,,8,8,1,"MIC [6, 25]: 0.5 mg/L; % Inhibition Wild Type S30 ([19]; Conc. 0.1 mg/ml): 66%; % Inhibition Wild Type S30 ([19]; Conc. 0.3 mg/ml, hydrochloride): 91%; % Inhibition Wild Type S30 ([19]; Conc. 1.0 mg/ml): 90%; inhibition of protein synthesis, in words ([19]; cell-free extracts from tetracycline susceptible strain MRE600): inhibited; % Inhibition TetM S30 ([20]; Conc. 0.1 mg/ml): 0%; % Inhibition TetM S30 ([20]; Conc. 0.3 mg/ml): 0%; % Inhibition TetM S30 ([20]; Conc. 1.0 mg/ml, hydrochloride): 19%; % Inhibition TetM S30 ([20]; Conc. 1.0 mg/ml, listed as minocycline, hydrochloride): less than 20%; inhibition of protein synthesis, in words ([20]; cell-free extracts from strain MRE600 (tetM)): resistant"
"CN(C)[C@@H]1C(O)=C(C(N)=O)C(=O)[C@@]2(O)C(O)=C3C(=O)c4c(O)cc(Cl)cc4CC3CC12 (some centres unmarked) [Compound E, 8-Chloro-4-(dimethylamino)-1,4,4a,5,5a,6-11,12a-octahydro-3,10,12,12a-tetrahydroxy-1,11-dioxo-2-naphthacenecarboxamide sulfate]",> 32,2,4,2,1,8,16,16,,0.03,4,4,0.12,,,,0.5,16,1,2,MIC ([14]; 18 h): 0.25 mg/L
"COC(=O)Nc1c(Cl)cc2c(c1O)C(=O)C1=C(O)[C@]3(O)C(=O)C(C(N)=O)=C(O)[C@@H](N(C)C)C3CC1C2 (stereo partly drawn) [I, 7S-(7alpha, 10aalpha)!- 9-(Aminocarbonyl)-3-chloro-7-(dimethylamino)-5,5a,6-6a,7,10,10a,12-octahydro-1,8,10a,11-tetrahydroxy-10,12-dioxo-2-naphthacenyl!-carbamic acid methyl ester]",> 32,0.5,2,0.5,0.5,8,,16,2,< 0.015,4,4,,,,0.5,,8,,,MIC ([13]; 18 h): 0.06 mg/L; MIC ([14]; 18 h): 0.06 mg/L; MIC ([15]; 18 h): 0.06 mg/L; MIC ([17]; 18 h): 0.5 mg/L
"CN(C)[C@@H]1C(O)=C(C(N)=O)C(=O)[C@@]2(O)C(O)=C3C(=O)c4c(O)cc(Cl)c([N+]#N)c4CC3CC12 (stereo partly drawn) [D, 8-(Aminocarbonyl)-2-chloro-10-(dimethylamino)-5,6a,10,10a,11,11a,12-octahydro-5,7-dioxo-l-naphthacenediazonium chloride]",> 32,4,8,4,2,,32,32,,0.12,,,0.5,,,,,32,2,2,"MIC [6, 25]: 16 mg/L; MIC ([11]; agar dilution, Muller-Hinton II agar, 18 hours at 35° C., S. aureus IVES 1983 (MP) (meth. resistant), read-out: MIC): 16 mg/L; MIC ([12]; agar dilution, Muller-Hinton II agar, 18 hours at 35° C., S. aureus IVES 2943 (meth. resistant), read-out: MIC): 16 mg/L; MIC ([17]; 18 h): 1 mg/L"

# — patent US5512553A, “7-(substituted)-8-(substituted)-9-(substituted amino)-6-demethyl-6-deoxytetracyclines” (American Cyanamid Company, priority 1995, dated 1996)
